Reference: paper PMC8951750, “In Vitro Anticancer and Cancer-Preventive Activity of New Triterpene Glycosides from the Far Eastern Starfish Solaster pacificus” (Marine Drugs, 2022)
Where “and” joins values, the source holds several entries; their conditions need not be identical. Equal entries are not always repeated. Where two headings read alike, the source gives them in different places.

What was measured:
[1] = test system: non-cancerous mouse epidermal cells JB6 Cl41; test: Cell viability, MTS assay, JB6 Cl41; format: cell-based
Procedure: (§1) MTS assay was used to measure the cell viability of tested normal and cancer cells. Cells were seeded into 96-well plates (“Jet Biofil”, Guangzhou, China) at density of 1.0 × 10^4/200 µL for 24 h at 37 °C in a 5% CO2 incubator. Then, cell monolayer was treated either with DMSO (control) or various concentrations of the triterpene glycosides 1–9 from S. pacificus (0.1, 0.5, 2.5, 12.5, 62.5 µM) in fresh appropriate culture medium for 24 h. Subsequently, the cells were incubated with 15 µL of 3-(4,5-dimethylthiazol-2-yl)-5-(3-carboxymethoxyphenyl)-2-(4-sulfophenyl)-2H-tetrazolium (MTS reagent) (“Promega”, Madison, WI, USA) for 3 h, and the absorbance of each well was measured at 490/630 nm using Power Wave XS microplate reader (“BioTek”, Wynusky, VT, USA). The concentration at which the compounds exert half of their maximal inhibitory effect on cell viability (IC50) was calculated by the AAT-Bioquest® online calculator [39]. The selectivity index (SI) was calculated as described previously using the following formula SI = IC50 of the compounds in normal cell (JB6 Cl41)/IC50 of the same compounds in human melanoma cell lines (SK-MEL-2, SK-MEL-28, or RPMI-7951).

[2] = test system: human melanoma cells SK-MEL-2; test: Cell viability, MTS assay, SK-MEL-2; format: cell-based
Procedure: as §1

[3] = test system: human melanoma cells SK-MEL-28; test: Cell viability, MTS assay, SK-MEL-28; format: cell-based
Procedure: as §1

[4] = test system: human melanoma cells RPMI-7951; test: Cell viability, MTS assay, RPMI-7951; format: cell-based
Procedure: as §1

[5] = test system: Human erythrocytes (O(I)+); test: Hemolysis assay; format: cell-based; settings: 1 h, 37 °C, PBS pH 7.4
Procedure: Human erythrocytes (O(I)+) were obtained from Vladivostok blood transfusion station. Erythrocytes were centrifuged with PBS (pH 7.4) for 5 min at 4 °C by 450× g on a LABOFUGE 400R (Heraeus, Hanau, Germany) centrifuge three times. Then, the residue of erythrocytes was resuspended in ice-cold PBS (pH 7.4) to a final optical density of 2.0 at 700 nm and kept on ice. For the hemolytic assay, 180 µL of erythrocyte suspension was mixed with 20 µL of Cucumarioside A2-2 (positive control) and investigated compounds at concentrations range of 0.1, 0.5, 1, 5, 10 µM in V-bottom 96-well plates. After 1 h of incubation at 37 °C, plates were centrifuged at 900× g for 10 min on an LMC-3000 (Biosan, Riga, Latvia) laboratory centrifuge. Then, we carefully selected 100 µL of supernatant and transferred it to new flat plates, respectively. Lysis of erythrocytes was determined by measuring the concentration of hemoglobin in the supernatant with a microplate photometer Multiskan FC (Thermo Fisher Scientific, Waltham, MA, USA) at 570 nm. The effective dose causing 50% of erythrocytes hemolysis (ED50) was calculated using the computer program SigmaPlot 10.0. All experiments were made in triplicate, p < 0.01.

[6] = test system: JB6 Cl41 cells; test: Soft agar assay, EGF-induced neoplastic cell transformation; format: cell-based, mouse; settings: compound 0.1 µM, EGF 1 ng/mL, soft agar, 2 weeks, vs positive control; for inhibition of EGF-induced neoplastic transformation of JB6 Cl41 cells: 0.1 µM; for inhibition at 0.1 µM: Mus musculus, JB6 Cl41, 336 h, read-out: inhibition of EGF-induced neoplastic transformation of JB6 Cl41 cells
Procedure: (§2) JB6 Cl41 cells (2.4 × 10^4) were exposed to epidermal growth factor (EGF) (1 ng/mL) or phorbol 12-myristate 13-acetate (TPA) (10 ng/mL) and treated either with DMSO (control) or the triterpene glycosides 1–9 from S. pacificus (0.1, 0.5, and 1 µM) in 1 mL of 0.3% basal medium Eagle (BME) agar containing 10% FBS, 2 mM L-glutamine, and 25 µg/mL gentamicin (agar mix). The cultures were maintained in a humidified atmosphere with 5% CO2 at 37 °C for 14 days, and the cell’s colonies were scored using a microscope, Motic AE 20 (XiangAn, Xiamen, China), and the ImageJ software bundled with 64-bit Java 1.8.0_112 (NIH, Bethesda, MD, USA). To determine the effect of investigated compounds on neoplastic cell transformation induced by ionizing radiation (X-ray or UVB), JB6 Cl41 cells (3 × 10^5/dish) were seeded in 60 mm dishes and cultured for 24 h at 37 °C in 5% CO2 incubator. Then, the cells were exposed to X-rays (X-ray system XPERT 80 (KUB Technologies, Inc, Milford, CT, USA)) at dose of 0.5 Gy or UVB (wavelengths below 312 nm) (Bio-Link UV irradiation system, Vilber, France) at dose of 0.3 J/cm^2 three times a week for 3 weeks. Irradiated JB6 Cl41 cells (2.4 × 10^4) were treated either with DMSO (control) or the triterpene glycosides 1–9 from S. pacificus (0.1, 0.5, and 1 µM) in 1 mL of agar mix. The cultures were maintained in a humidified atmosphere with 5% CO2 at 37 °C for 14 days, and the cell’s colonies were scored using a microscope, Motic AE 20 (XiangAn, Xiamen 361101, China), and the ImageJ software bundled with 64-bit Java 1.8.0_112 (NIH, Bethesda, MD, USA).

[7] = test system: JB6 Cl41 cells; test: Soft agar assay, TPA-induced neoplastic cell transformation; format: cell-based, mouse; settings: compound 0.1 µM, TPA 10 ng/mL, soft agar, 2 weeks, vs positive control; for inhibition of TPA-induced neoplastic transformation of JB6 Cl41 cells: 0.1 µM; for inhibition at 0.1 µM: Mus musculus, JB6 Cl41, 336 h, read-out: inhibition of TPA-induced neoplastic transformation of JB6 Cl41 cells
Procedure: as §2

[8] = test system: JB6 Cl41 cells; test: Soft agar assay, X-ray-induced neoplastic cell transformation; format: cell-based, mouse; settings: for inhibition at 0.1 µM: Mus musculus, JB6 Cl41, 504 h
Procedure: as §2

[9] = test system: JB6 Cl41 cells; test: Soft agar assay, UVB-induced neoplastic cell transformation; format: cell-based, mouse; settings: for inhibition at 0.1 µM: Mus musculus, JB6 Cl41, light or radiation study, 504 h
Procedure: as §2

[10] = test system: SK-MEL-2 cells; test: Soft agar assay, colony formation of cancer cells; format: cell-based, human; settings: compound 0.1 µM, 14 days
Procedure: SK-MEL-2 cells (2.4 × 10^4) were treated either with DMSO (control) or the triterpene glycosides 1–9 from S. pacificus (0.1 µM) in 1 mL of agar mix. After 14 days, colonies of cancer cells were scored as described above.

[11] = MTS assay, 24 h; read-out: IC50, cell viability SK-MEL-2
[12] = compound 0.1 µM, UVB 0.3 J/cm^2 three times a week for 3 weeks, soft agar
[13] = Mus musculus, JB6 Cl41, 24 h, MTS assay, 24 h, normal cells; read-out: IC50, cell viability JB6 Cl41
[14] = Homo sapiens, SK-MEL-2, 24 h, MTS assay, 24 h; read-out: IC50, cell viability SK-MEL-2
[15] = Homo sapiens, SK-MEL-28, 24 h, MTS assay, 24 h; read-out: IC50, cell viability SK-MEL-28
[16] = Homo sapiens, RPMI-7951, 24 h, MTS assay, 24 h; read-out: IC50, cell viability RPMI-7951
[17] = compound 0.1 µM, X-rays 0.5 Gy three times a week for 3 weeks, soft agar, read-out: inhibition of X-ray-induced cell transformation (JB6 Cl41 colonies formation)

Structure (SMILES) | SI (selectivity index) RPMI-7951 ([4]; IC50 JB6 Cl41 / IC50 RPMI-7951) | ED50, effective dose causing 50% of erythrocytes hemolysis [5] | inhibition of EGF-induced neoplastic transformation of JB6 Cl41 cells [6] [%] | inhibition of TPA-induced neoplastic transformation of JB6 Cl41 cells [7] [%] | decrease of colonies number of SK-MEL-2 cells (colony formation) [10] [%] | SI (selectivity index) SK-MEL-2 ([2]; IC50 JB6 Cl41 / IC50 SK-MEL-2) | IC50 [2, 11] [nM] | SI (selectivity index) SK-MEL-28 ([3]; IC50 JB6 Cl41 / IC50 SK-MEL-28) | inhibition of UVB-induced neoplastic cell transformation (decrease of colonies number) [9, 12] | IC50 [1, 13] [µM] | IC50 [2, 14] [nM] | IC50 [3, 15] [µM] | IC50 [4, 16] [µM] | inhibition at 0.1 µM [6] [%] | inhibition at 0.1 µM [7] [%] | inhibition at 0.1 µM [8, 17] [%] | further results
COC1C(O)C(CO)OC(OC2C(O)C(CO)OC(OC3C(C)OC(OC4C(OC5CCC6(C)C7CCC89C(=O)OC(C)(C=CC=C(C)C)C8C(OC(C)=O)CC9(C)C7=CCC6C5(C)C)OCC(O)C4O)C(OC4OCC(O)C(O)C4O)C3O)C2O)C1O (stereo not shown) [Compound 4, cucumarioside D] | 0.2 | 2.48 µM and 2.48 ± 0.05 µM | 92 | 99 | 70 |  |  |  |  |  |  |  |  |  |  |  | IC50 ([1]; read-out: IC50, cell viability JB6 Cl41; MTS assay, 24 h, normal cells): 6.1 ± 0.4 µM; IC50 ([2]; read-out: IC50, cell viability SK-MEL-2; MTS assay, 24 h): 670 ± 40 nM; IC50 ([3]; read-out: IC50, cell viability SK-MEL-28; MTS assay, 24 h): 8.3 ± 0.1 µM; IC50 ([4]; read-out: IC50, cell viability RPMI-7951; MTS assay, 24 h): 29.2 ± 0.04 µM; inhibition at 0.1 µM ([8]; read-out: inhibition of X-ray-induced cell transformation (JB6 Cl41 colonies formation), compound 0.1 µM, X-rays 0.5 Gy three times a week for 3 weeks, soft agar): 97%; inhibition at 0.1 µM ([9]; read-out: inhibition of UVB-induced neoplastic cell transformation (decrease of colonies number), compound 0.1 µM, UVB 0.3 J/cm^2 three times a week for 3 weeks, soft agar): 86%
CC(=O)OC1CC2(C)C3=CCC4C(C)(C)C(OC5OCC(O)C(O)C5OC5OC(C)C(OC6OC(CO)C(O)C(O)C6O)C(O)C5OC5OCC(O)C(O)C5O)CCC4(C)C3CCC23C(=O)OC(C)(C=CC=C(C)C)C13 [Compound 5, 3β-O-{β-D-glucopyranosyl-(1→4)-[β-D-xylopyranosyl-(1→2)]-β-D-quinovopyranosyl-(1→2)-β-D-xylopyranosyl}-16β-acetoxyholosta-7,22Z,24-triene] | 0.23 | 7.02 ± 0.46 µM | 16 | 17 | 13 | 0.2 | 37300 ± 10 | 0.3 | not effective |  |  |  |  |  |  |  | IC50 ([1]; MTS assay, 24 h, normal cells; read-out: IC50, cell viability JB6 Cl41): 8.7 ± 0.2 µM; IC50 ([3]; MTS assay, 24 h; read-out: IC50, cell viability SK-MEL-28): 25.3 ± 0.09 µM; IC50 ([4]; MTS assay, 24 h; read-out: IC50, cell viability RPMI-7951): 38 ± 0.3 µM; inhibition of X-ray-induced cell transformation (JB6 Cl41 colonies formation) ([8]; compound 0.1 µM, X-rays 0.5 Gy three times a week for 3 weeks, soft agar): less than 15%
COC1C(O)C(CO)OC(OC2C(O)C(CO)OC(OC3C(C)OC(OC4C(OC5CCC6(C)C7CCC89C(=O)OC(C)(C=CC=C(C)C)C8C(OC(C)=O)CC9(C)C7=CCC6C5(C)C)OCC(O)C4O)C(OC4OCC(O)C(O)C4O)C3O)C2O)C1O [Compound 1, 3β-O-{3-O-methyl-β-D-glucopyranosyl-(1→3)-β-D-glucopyranosyl-(1→4)-[β-D-xylopyranosyl-(1→2)]-β-D-quinovopyranosyl-(1→2)-β-D-xylopyranosyl}-16β-acetoxyholosta-7,22E,24-triene] | 0.24 | 2.03 µM and 2.03 ± 0.19 µM |  |  | 64 | 9.1 | 700 ± 70 | 0.8 |  | 6.4 ± 0.05 | < 1000 | 8.4 ± 0.07 | 26.7 ± 0.1 | 94 | 98 | 94 | inhibition at 0.1 µM ([9]; compound 0.1 µM, UVB 0.3 J/cm^2 three times a week for 3 weeks, soft agar, read-out: inhibition of UVB-induced neoplastic cell transformation (decrease of colonies number)): 96%
C=C(C)C1C2CC3(C)C4=CCC5C(C)(C)C(OC6OCC(O)C(O)C6OC6OC(C)C(OC7OC(CO)C(O)C(O)C7O)C(O)C6OC6OCC(O)C(O)C6O)CCC5(C)C4CCC13C(=O)O2 [Compound 8, 3β-O-{β-D-glucopyranosyl-(1→4)-[β-D-xylopyranosyl-(1→2)]-β-D-quinovopyranosyl-(1→2)-β-D-xylopyranosyl}-23,24,25,26,27-pentanor-5α-lanosta-7,20(22)-diene-18(16)-lactone] |  | 6.16 ± 0.05 µM |  |  | 3 |  |  | 0.8 | not effective | 32.8 ± 2.8 | > 50000 | 42 ± 0.4 | > 50 | 10 | 20 | < 15 | 
